Measured values as given in ChEMBL document CHEMBL1201862, “PubChem BioAssay data set” (2004).
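48-hour exposure; five concentrations; linearly interpolated endpoints. Here, GI50 denotes the concentration required for 50% inhibition of growth.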 Active and inactive are the calls of the source. Cut-off read from the data, not from the text of the source: active = GI50 up to about 1.1 µM and inactive = higher.

How the values were obtained:
Experiment in all cases: DTP human tumour cell line panel, 48 h
SK-MEL-28 = test system: SK-MEL-28
NCI-H23 = test system: NCI-H23
KM12 = test system: KM12
OVCAR-3 = test system: OVCAR-3
SF-295 = test system: SF-295
OVCAR-5 = test system: OVCAR-5
HT-29 = test system: HT-29
UO-31 = test system: UO-31
TK-10 = test system: TK-10
EKVX = test system: EKVX
NCI-H226 = test system: NCI-H226
OVCAR-8 = test system: OVCAR-8
K562 = test system: K562
SK-OV-3 = test system: SK-OV-3
OVCAR-4 = test system: OVCAR-4
M14 = test system: M14
RXF 393 = test system: RXF 393
MCF7 = test system: MCF7
SNB-75 = test system: SNB-75
SF-539 = test system: SF-539

Measured: GI50

Cc1cc(Cc2cc(Cc3cc(C)cc(C(C)(C)C)c3O)c(C)cc2C)c(O)c(C(C)(C)C)c1
inactive: SK-MEL-28 18 µM | NCI-H23 17.4 µM | KM12 16.6 µM | OVCAR-3 16.4 µM | SF-295 18.9 µM | OVCAR-5 19.6 µM | HT-29 18.6 µM | UO-31 18.1 µM | TK-10 24.1 µM | EKVX 16.6 µM | NCI-H226 14.8 µM | OVCAR-8 24.9 µM | K562 15.7 µM | SK-OV-3 16.7 µM | OVCAR-4 11 µM | M14 17.4 µM | RXF 393 12 µM | MCF7 12.7 µM | SNB-75 11.2 µM

C=CCn1c(=O)ccn(COCCO)c1=O
inactive: SK-MEL-28 > 100 µM | NCI-H23 > 100 µM | KM12 > 100 µM | OVCAR-3 > 100 µM | OVCAR-5 > 100 µM | HT-29 > 100 µM | UO-31 > 100 µM | TK-10 > 100 µM | EKVX > 100 µM | NCI-H226 > 100 µM | OVCAR-8 > 100 µM | SF-539 > 100 µM | K562 > 100 µM | OVCAR-4 > 100 µM | M14 > 100 µM | RXF 393 > 100 µM | MCF7 > 100 µM | SNB-75 > 100 µM

Cc1ccc(S(=O)(=O)N/N=C2/CCC(C(C)(C)C)CC2Br)cc1 (stereo not given)
inactive: SK-MEL-28 19.6 µM | NCI-H23 28 µM | KM12 20.8 µM | OVCAR-3 16.2 µM | SF-295 34.5 µM | OVCAR-5 19.5 µM | HT-29 29.4 µM | UO-31 17.2 µM | TK-10 31 µM | EKVX 36.6 µM | NCI-H226 17.8 µM | OVCAR-8 26.4 µM | SF-539 21.2 µM | K562 19.8 µM | SK-OV-3 33.8 µM | OVCAR-4 19.5 µM | M14 17.9 µM | MCF7 22.7 µM | SNB-75 27.4 µM

Cc1cccc(/C=C2\CCCc3ccccc3C2=O)c1
inactive: SK-MEL-28 23.8 µM | NCI-H23 25.4 µM | KM12 13.4 µM | OVCAR-3 26.3 µM | SF-295 19.5 µM | OVCAR-5 15 µM | HT-29 18.5 µM | UO-31 26.8 µM | TK-10 27.4 µM | EKVX 20.6 µM | NCI-H226 20.6 µM | OVCAR-8 19.1 µM | SF-539 18.7 µM | K562 18 µM | SK-OV-3 62.4 µM | OVCAR-4 19.1 µM | M14 17.9 µM | MCF7 16.9 µM | SNB-75 42.2 µM
